Reference: ChEMBL document CHEMBL1201862, “PubChem BioAssay data set” (2004)
Calls of active or inactive are those of the source.

Tests used:
[1] = test system: Vero; test: inhibition of WNV-induced cytopathic effect – cell-based, CPE readout (AID 1621); type: functional; conditions: Chlorocebus sabaeus
[2] = viability of HCT116 lacking mutant beta-catenin – cell-based, human colon tumor, dose response (AID 1045); type: functional;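 further: HCT116 colon tumor cells with beta catenin knocked out; cells exposed to compound for 60 hours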
[3] = molecular target: CAAX prenyl protease 2 (Saccharomyces cerevisiae S288c, UniProt Q03530); type: biochemical
[4] = viability of PTEN-deleted HCT116 cells – cell-based, HCT116 PTEN knockout, dose response (AID 1047); type: functional;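 further: HCT116 colon tumor cells with PTEN knocked out; cells exposed to compound for 60 hours before readout; potency for loss of cell viability measured by luminescence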
[5] = molecular target: 1-acylglycerol-3-phosphate O-acyltransferase ABHD5/Perilipin-5 (Homo sapiens, UniProt Q00G26+Q8WTS1); test: Luminescence-based biochemical high throughput dose response assay for inhibitors of the interaction of the lipase co-activator protein, abhydrolase domain containing 5 (ABHD5) with perilipin-5 (MLDP; PLIN5) (2K validation set). [Related pubchem assays (depositor defined):AID493035, AID493241]
[6] = molecular target: Perilipin-1/ABHD5 (Homo sapiens, UniProt O60240+Q8WTS1); test: Luminescence-based biochemical high throughput dose response assay for inhibitors of the interaction of the lipase co-activator protein, abhydrolase domain containing 5 (ABHD5) with perilipin-1 (PLIN1) (2K validation set). [Related pubchem assays (depositor defined):AID493027, AID493057]
[7] = molecular target: T1, DNA repair and recombination protein RAD54-like (Homo sapiens, UniProt Q92698); test: RAD54 Holliday junction migration blockers – biochemical, fluorescence, cherry-picked samples, dose series, confirmation (AID 651657); type: functional
T1 sequence (Q92698 whole entry): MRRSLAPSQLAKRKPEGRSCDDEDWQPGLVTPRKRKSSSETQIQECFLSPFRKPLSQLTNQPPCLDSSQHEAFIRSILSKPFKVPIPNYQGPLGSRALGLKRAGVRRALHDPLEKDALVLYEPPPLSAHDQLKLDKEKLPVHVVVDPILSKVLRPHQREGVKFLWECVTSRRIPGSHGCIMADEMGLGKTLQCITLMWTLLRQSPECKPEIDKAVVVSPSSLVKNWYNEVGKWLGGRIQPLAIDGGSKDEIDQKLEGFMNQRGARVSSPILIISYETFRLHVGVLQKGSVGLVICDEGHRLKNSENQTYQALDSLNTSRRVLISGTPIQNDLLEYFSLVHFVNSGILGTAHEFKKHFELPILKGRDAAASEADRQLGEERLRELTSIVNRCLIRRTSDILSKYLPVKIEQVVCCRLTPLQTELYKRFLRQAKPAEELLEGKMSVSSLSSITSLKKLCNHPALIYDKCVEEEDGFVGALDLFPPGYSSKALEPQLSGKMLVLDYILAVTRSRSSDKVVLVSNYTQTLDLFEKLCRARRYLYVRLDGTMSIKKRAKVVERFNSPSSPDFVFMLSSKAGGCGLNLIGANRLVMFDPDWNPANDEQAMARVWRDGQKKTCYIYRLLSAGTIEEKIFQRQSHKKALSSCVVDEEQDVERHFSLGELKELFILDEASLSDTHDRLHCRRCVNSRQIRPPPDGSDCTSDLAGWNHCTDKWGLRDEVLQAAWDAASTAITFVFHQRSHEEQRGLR

[8] = molecular target: Trypsin (Sus scrofa, UniProt P00761); test: trypsin protease activity blockade – biochemical, quenched peptide fluorescence, cherry-pick, selectivity assay for Rce1 protease inhibitor project, dose response (AID 488789)
[9] = HepG2 cell cytotoxicity, dose response, cytotoxicity control for non-replicating M. tuberculosis project (AID 489018); type: functional; conditions: Mycobacterium tuberculosis
[10] = THP-1 cell cytotoxicity, dose response, cytotoxicity control for non-replicating M. tuberculosis project (AID 489025); type: functional
[11] = molecular target: T2, Kappa-type opioid receptor (Homo sapiens, UniProt P41145); test: SAR analysis of small molecule antagonists of the kappa opioid receptor via a luminescent beta-arrestin assay - Set 3. [Related pubchem assays (depositor defined):AID1777, AID1778, AID1785, AID1786, AID1966, AID2133, AID2136, AID2285, AID2495]; type: functional
[12] = molecular target: Mu-type opioid receptor (Homo sapiens, UniProt P35372); test: SAR Analysis of Antagonists of the MOR Receptor using an Image-Based Assay - Set 3. [Related pubchem assays (depositor defined):AID1777, AID1785, AID1786, AID1966, AID2133, AID2136, AID2284, AID2285, AID2420]; type: functional
[13] = molecular target: Delta-type opioid receptor (Homo sapiens, UniProt P41143); test: SAR Analysis of Antagonists of the DOR Receptor using an Image-Based Assay - Set 3. [Related pubchem assays (depositor defined):AID1777, AID1785]; type: functional;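 further: U2OS cells expressing DOR1 and beta-arrestin GFP stimulated with 100 nM SNC80; imaging of GFP-tagged beta-arrestin moving into spots after receptor activation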
[14] = molecular target: T2, Kappa-type opioid receptor; test: SAR analysis of Antagonists of the Kappa Opioid Receptor (KOR) using an Image-Based Assay - Set 3. [Related pubchem assays (depositor defined):AID1777, AID1785]; type: functional
[15] = molecular target: T3, Dual specificity protein phosphatase 6 (Rattus norvegicus, UniProt Q64346); type: functional;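 further: confirmatory in vitro dose-response testing of MKP-3 inhibition; recombinant His-tagged MKP-3 made in E. coli BL21 with OMFP substrate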
T3 sequence (Q64346 whole entry): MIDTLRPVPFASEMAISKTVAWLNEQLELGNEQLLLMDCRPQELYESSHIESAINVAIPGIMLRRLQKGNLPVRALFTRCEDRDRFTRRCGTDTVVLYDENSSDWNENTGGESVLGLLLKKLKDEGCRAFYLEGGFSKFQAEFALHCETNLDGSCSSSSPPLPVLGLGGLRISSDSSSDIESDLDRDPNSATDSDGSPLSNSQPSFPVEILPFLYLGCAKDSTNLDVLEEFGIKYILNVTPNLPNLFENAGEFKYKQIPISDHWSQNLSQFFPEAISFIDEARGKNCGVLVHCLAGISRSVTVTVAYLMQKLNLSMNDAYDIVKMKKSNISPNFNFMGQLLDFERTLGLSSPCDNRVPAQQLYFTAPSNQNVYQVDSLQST

[16] = molecular target: T4, Tyrosine-protein phosphatase non-receptor type 7 (Homo sapiens, UniProt P35236); test: redox-active compounds inhibiting HePTP phosphatase – biochemical, fluorescence, mechanism study (AID 2068); type: functional
T4 sequence (P35236 whole entry): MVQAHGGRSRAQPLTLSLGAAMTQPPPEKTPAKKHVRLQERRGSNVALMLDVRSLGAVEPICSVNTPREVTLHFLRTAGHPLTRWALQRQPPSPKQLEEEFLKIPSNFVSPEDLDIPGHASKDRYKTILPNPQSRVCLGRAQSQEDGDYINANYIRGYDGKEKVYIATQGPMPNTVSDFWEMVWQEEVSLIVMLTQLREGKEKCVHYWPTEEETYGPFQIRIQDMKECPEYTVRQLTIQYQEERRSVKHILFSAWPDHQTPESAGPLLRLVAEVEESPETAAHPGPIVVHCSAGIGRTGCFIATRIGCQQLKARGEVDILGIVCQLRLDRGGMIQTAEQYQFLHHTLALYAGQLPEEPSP

[17] = molecular target: Dual specificity protein phosphatase 3 (Homo sapiens, UniProt P51452); test: SAR VHR1 Fluorescent Assay for In Vitro dose response studies Set 2. [Related pubchem assays (depositor defined):AID1654, AID1661, AID1878]; type: functional
[18] = molecular target: Integrin alpha-4 (Homo sapiens, UniProt P13612); test: allosteric modulators of alpha4 integrin VLA-4 – cell-based, LIBS antibody binding, flow cytometry, SAR follow-up (AID 488791); type: functional
[19] = molecular target: Protein-tyrosine kinase 2-beta (Homo sapiens, UniProt Q14289);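 further: potency of inhibitors of PYK2 kinase phosphorylation of poly-GT substrate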
[20] = Trypanosoma cruzi growth suppression in host cells – NIH3T3 host cells, beta-gal luminescence, confirmation (AID 2044); type: functional, cell-based;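 further: intracellular parasites grown in NIH/3T3 mouse fibroblasts as host cells; luminescent beta-galactosidase reporter signal from transgenic T. cruzi replicating inside host cells; inhibitors lower the luminescence signal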
[21] = NIH3T3 cell viability loss – ATP luminescence, mouse fibroblasts, counter-screen, dose response (AID 2010); type: functional, cell-based;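 further: cells exposed to compound for about 90 hours before reading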
[22] = molecular target: T2, Kappa-type opioid receptor; test: SAR analysis of small molecule antagonists of the kappa opioid receptor via a luminescent beta-arrestin assay - Set 4. [Related pubchem assays (depositor defined):AID1777, AID1778, AID1785, AID1786, AID1966, AID2133, AID2136, AID2285]; type: functional
[23] = molecular target: T2, Kappa-type opioid receptor; test: SAR analysis of Antagonists of the Kappa Opioid Receptor (KOR) using an Image-Based Assay - Set 4. [Related pubchem assays (depositor defined):AID1777, AID1785]; type: functional
[24] = Luminescence Cell Based Dose Confirmation HTS to Identify Activators of 5'UTR Stem-Loop Driven Alpha-Synuclein mRNA Translation in H4 Neuroglioblastoma Cells. [Related pubchem assays (depositor defined):AID1813, AID1829]; type: functional; conditions: Homo sapiens
[25] = molecular target: T5, Cannabinoid receptor 2 (Homo sapiens, UniProt P34972); test: SAR analysis of agonists of the Cannabinoid Receptor 2 using an Image-Based Assay - Set 2. [Related pubchem assays (depositor defined):AID1961, AID1965]; type: functional
[26] = molecular target: T6, Cannabinoid receptor 1 (Homo sapiens, UniProt P21554); test: SAR analysis of antagonists of the Cannabinoid Receptor 1 using an Image-Based Assay - Set 3. [Related pubchem assays (depositor defined):AID1961, AID1965]; type: functional
[27] = molecular target: T7, G-protein coupled receptor 35 (Homo sapiens, UniProt Q9HC97); test: SAR analysis of Agonists of the GPR35 Receptor using an Image-Based Assay - Set 3. [Related pubchem assays (depositor defined):AID1961, AID1965]; type: functional
[28] = molecular target: T7, G-protein coupled receptor 35; test: SAR analysis of Antagonists of the GPR35 Receptor using an Image-Based Assay - Set 4. [Related pubchem assays (depositor defined):[…]]; type: functional
[29] = molecular target: G-protein coupled receptor 55 (Homo sapiens, UniProt Q9Y2T6); test: SAR analysis of selective Agonists of GPR55 using an Image-Based Assay - Set 2. [Related pubchem assays (depositor defined):AID1961, AID1965]; type: functional
[30] = molecular target: T6, Cannabinoid receptor 1; test: SAR analysis of agonists of the Cannabinoid Receptor 1 using an Image-Based Assay - Set 3. [Related pubchem assays (depositor defined):AID1961, AID1965]; type: functional
[31] = molecular target: T5, Cannabinoid receptor 2; test: SAR analysis of antagonists of the Cannabinoid Receptor 2 using an Image-Based Assay - Set 2. [Related pubchem assays (depositor defined):AID1961, AID1965]; type: functional
[32] = molecular target: Coagulation factor XII (Homo sapiens, UniProt P00748); test: Factor XIIa Dose Response Confirmation from Single Well HTS. [Related pubchem assays (depositor defined):AID701]; type: functional

T2 sequence (P41145 whole entry): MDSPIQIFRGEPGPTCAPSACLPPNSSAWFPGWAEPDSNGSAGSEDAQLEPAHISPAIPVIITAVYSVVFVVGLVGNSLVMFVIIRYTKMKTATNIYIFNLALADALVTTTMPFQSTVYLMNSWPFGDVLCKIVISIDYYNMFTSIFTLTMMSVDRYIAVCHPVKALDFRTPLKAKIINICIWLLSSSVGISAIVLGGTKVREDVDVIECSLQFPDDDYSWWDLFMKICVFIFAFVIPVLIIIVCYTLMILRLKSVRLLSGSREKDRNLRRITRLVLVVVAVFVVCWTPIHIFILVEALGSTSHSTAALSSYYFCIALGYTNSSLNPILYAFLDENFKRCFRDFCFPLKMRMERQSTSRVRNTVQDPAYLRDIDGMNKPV
Sequence of Mu-type opioid receptor (P35372 whole entry): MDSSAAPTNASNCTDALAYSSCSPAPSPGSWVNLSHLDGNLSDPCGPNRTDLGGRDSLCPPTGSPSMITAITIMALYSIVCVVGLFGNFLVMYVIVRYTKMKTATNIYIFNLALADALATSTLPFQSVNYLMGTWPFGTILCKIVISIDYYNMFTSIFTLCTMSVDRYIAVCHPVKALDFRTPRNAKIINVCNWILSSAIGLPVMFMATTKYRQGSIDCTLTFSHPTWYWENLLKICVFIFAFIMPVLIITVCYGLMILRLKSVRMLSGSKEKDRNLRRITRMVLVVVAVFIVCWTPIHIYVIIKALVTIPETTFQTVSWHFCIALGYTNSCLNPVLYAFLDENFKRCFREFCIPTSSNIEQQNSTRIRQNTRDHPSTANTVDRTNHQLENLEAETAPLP
T6 sequence (P21554 whole entry): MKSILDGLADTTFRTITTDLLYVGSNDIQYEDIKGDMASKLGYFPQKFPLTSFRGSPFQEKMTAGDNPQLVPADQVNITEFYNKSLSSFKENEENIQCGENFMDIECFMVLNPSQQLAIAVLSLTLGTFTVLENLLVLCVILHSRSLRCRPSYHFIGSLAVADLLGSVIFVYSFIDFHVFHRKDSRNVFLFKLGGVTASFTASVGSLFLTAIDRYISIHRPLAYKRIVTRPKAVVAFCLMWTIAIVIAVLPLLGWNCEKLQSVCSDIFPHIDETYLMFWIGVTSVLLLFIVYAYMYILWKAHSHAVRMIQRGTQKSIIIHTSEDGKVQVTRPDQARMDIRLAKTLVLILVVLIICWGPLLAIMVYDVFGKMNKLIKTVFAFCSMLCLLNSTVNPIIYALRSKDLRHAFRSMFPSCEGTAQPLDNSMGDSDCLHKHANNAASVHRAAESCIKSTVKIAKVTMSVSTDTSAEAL
T7 sequence (Q9HC97 whole entry): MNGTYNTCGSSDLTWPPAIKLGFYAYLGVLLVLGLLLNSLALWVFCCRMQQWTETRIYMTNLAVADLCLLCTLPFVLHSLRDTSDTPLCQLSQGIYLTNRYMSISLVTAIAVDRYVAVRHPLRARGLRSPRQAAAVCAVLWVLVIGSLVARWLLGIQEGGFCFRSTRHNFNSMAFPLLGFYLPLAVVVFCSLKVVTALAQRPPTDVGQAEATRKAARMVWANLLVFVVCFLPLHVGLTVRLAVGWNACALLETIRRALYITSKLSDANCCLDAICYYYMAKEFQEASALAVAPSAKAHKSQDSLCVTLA
T5 sequence (P34972 whole entry): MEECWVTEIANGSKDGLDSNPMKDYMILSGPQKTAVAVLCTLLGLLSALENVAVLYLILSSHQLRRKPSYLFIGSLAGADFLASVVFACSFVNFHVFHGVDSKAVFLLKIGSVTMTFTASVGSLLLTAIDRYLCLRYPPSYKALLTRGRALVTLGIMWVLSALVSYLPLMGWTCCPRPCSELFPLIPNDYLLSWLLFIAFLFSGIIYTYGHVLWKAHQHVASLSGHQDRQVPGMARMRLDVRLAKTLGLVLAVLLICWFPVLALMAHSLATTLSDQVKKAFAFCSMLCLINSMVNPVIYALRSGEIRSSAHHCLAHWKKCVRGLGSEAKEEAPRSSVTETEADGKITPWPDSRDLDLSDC
Sequence of Delta-type opioid receptor (P41143 whole entry): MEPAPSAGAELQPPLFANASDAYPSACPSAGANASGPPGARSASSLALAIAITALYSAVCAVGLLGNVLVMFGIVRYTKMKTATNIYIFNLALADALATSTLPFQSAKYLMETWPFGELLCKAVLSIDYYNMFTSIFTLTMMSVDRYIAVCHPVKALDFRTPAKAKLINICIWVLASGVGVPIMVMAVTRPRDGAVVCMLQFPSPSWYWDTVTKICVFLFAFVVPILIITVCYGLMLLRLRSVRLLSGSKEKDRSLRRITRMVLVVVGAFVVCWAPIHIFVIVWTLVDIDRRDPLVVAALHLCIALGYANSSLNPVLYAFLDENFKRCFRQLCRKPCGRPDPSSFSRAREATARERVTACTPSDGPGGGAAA
Sequence of Protein-tyrosine kinase 2-beta (Q14289 whole entry): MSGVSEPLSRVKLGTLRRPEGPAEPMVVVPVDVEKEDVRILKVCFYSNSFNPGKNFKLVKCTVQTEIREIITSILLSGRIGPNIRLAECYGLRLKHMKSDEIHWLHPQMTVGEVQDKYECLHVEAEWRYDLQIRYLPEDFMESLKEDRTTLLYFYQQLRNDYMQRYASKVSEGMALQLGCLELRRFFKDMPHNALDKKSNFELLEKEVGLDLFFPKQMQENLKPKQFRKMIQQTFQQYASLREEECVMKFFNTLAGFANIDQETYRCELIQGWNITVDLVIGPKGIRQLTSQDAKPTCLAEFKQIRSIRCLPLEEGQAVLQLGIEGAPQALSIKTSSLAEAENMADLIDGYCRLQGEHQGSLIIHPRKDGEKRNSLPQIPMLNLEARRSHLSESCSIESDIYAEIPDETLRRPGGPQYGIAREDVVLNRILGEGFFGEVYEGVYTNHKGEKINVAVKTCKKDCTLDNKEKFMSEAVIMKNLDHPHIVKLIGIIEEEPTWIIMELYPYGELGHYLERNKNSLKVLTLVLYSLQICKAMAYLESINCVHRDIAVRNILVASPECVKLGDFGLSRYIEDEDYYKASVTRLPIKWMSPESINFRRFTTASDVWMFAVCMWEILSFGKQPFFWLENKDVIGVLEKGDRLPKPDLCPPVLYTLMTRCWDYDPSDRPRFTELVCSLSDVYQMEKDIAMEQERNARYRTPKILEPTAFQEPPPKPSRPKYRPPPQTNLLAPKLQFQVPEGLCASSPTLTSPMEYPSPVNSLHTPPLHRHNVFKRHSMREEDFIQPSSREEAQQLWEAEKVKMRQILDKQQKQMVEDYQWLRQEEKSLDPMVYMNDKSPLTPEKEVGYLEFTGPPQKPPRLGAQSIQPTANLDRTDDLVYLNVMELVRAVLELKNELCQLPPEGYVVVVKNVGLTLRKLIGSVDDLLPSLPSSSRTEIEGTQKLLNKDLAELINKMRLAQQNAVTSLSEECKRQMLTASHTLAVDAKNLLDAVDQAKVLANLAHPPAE
Sequence of Dual specificity protein phosphatase 3 (P51452 whole entry): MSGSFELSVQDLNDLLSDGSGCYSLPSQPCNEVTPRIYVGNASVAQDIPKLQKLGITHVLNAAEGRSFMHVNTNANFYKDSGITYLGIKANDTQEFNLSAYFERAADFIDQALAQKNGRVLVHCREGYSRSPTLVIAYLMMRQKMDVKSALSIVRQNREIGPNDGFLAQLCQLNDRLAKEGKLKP
Sequence of Perilipin-1/ABHD5 (Q8WTS1 whole entry, the tested form may be a part): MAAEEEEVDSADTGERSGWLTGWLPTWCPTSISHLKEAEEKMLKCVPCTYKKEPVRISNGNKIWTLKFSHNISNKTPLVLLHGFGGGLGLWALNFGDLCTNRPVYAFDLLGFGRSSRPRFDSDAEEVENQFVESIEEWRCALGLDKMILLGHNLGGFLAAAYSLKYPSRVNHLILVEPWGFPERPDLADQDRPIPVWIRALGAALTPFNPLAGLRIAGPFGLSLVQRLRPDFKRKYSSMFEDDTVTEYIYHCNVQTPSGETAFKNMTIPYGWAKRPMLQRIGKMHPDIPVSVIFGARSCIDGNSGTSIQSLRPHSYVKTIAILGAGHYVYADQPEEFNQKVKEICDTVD
Sequence of Perilipin-1/ABHD5 (O60240 whole entry, the tested form may be a part): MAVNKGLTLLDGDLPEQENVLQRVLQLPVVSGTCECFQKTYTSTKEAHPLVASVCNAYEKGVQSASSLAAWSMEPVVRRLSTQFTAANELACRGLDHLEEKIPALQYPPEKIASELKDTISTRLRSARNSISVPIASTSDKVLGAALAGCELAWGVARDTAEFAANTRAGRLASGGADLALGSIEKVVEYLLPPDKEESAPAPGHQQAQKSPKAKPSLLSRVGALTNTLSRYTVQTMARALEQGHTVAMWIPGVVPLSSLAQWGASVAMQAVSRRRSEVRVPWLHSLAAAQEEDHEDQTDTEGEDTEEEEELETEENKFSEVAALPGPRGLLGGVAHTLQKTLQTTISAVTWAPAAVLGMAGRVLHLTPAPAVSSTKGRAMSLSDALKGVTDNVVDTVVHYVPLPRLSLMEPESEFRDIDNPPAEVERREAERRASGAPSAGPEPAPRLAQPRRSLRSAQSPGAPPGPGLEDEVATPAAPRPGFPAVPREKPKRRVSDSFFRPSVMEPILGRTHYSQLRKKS
Sequence of Trypsin (P00761 whole entry): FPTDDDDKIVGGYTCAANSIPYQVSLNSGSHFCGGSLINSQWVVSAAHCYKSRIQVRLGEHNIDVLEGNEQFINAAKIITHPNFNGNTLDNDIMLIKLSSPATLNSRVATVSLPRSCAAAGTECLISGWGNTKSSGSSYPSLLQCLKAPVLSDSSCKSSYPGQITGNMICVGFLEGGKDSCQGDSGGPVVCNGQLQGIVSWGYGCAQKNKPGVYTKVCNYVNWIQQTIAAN
Sequence of G-protein coupled receptor 55 (Q9Y2T6 whole entry): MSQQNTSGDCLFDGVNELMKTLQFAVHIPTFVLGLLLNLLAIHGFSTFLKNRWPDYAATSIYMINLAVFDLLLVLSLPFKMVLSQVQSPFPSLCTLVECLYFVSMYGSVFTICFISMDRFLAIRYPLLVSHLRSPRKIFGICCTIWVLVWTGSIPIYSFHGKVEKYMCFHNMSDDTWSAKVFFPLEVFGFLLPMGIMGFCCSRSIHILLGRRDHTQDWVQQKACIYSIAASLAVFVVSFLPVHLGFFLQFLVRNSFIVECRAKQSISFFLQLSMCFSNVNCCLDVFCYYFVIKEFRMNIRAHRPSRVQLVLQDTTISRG

With `COc1ccc(C2c3c(ncn(CCN4CCOCC4)c3=N)Oc3ccc4ccccc4c32)cc1` (stereo not given) the IC50 [1] was 18.7 µM (active), the EC50 [2] was 11.1 µM (active) and the AC50 [3] was 15.7 µM (active). For the same molecule, the EC50 [4] was 12.7 µM (active).

For `O=C(CN1C(=O)/C(=C/c2cccc(Br)c2)SC1=S)Nc1cccnc1`, the IC50 [5] was 16 µM (inactive) and the IC50 [6] was 20.8 µM (inactive).

For `COc1ccc2c(c1)c1ncn(CCN3CCCC3)c(=O)c1n2C`, the AC50 [7] was 23.3 µM (active) and the AC50 [8] was 19.7 µM (active).

For `Clc1ccc(SCCCCN2CCNCC2)cc1`, the CC50 [9] was > 20 µM (active) and the CC50 [10] was > 40 µM (active).

For `CCc1ccc(S(=O)(=O)NCc2ccc(C(=O)NCCN3Cc4ccccc4C3)cc2)cc1`, the IC50 [11] was > 20 µM (inactive), the IC50 [12] was > 32 µM (inactive) and the IC50 [13] was > 32 µM (inactive). For the same molecule, the IC50 [14] was > 32 µM (inactive).

In the case of `O=C(O)c1ccc(C=c2sc(=CC(=O)c3ccco3)[nH]c2=O)cc1`, the IC50 [15] is reported as > 100 µM (inactive), the IC50 [16] is reported as 4.09 µM (active) and the IC50 [17] is reported as 16.2 µM (active).

With `O=C(COc1ccc(/C=N/NC(=O)c2cc3ccccc3o2)cc1Cl)Nc1ccccc1` the EC50 [18] was 23.4 µM (active), the IC50 [19] was 2.65 µM (active) and the EC50 [2] was 191 µM (active). The EC50 [20] was 2 µM (active) and the EC50 [21] was 19.2 µM (active).

For `CC(C)Cc1ccc(S(=O)(=O)NCc2ccc(C(=O)NCCN(Cc3ccccc3)C(C)C)cc2)cc1`, the IC50 [22] was 4.02 µM (active), the IC50 [12] was > 32 µM (inactive) and the IC50 [13] was > 32 µM (inactive). For the same molecule, the IC50 [23] was 0.595 µM (active).

With `Cc1ccc(Nc2ccc(-c3ccncc3)s2)c(Br)c1` the EC50 [24] was 3.92 µM (active).

In the case of `CCc1cc(C(=O)Nc2cc(S(=O)(=O)N3CCOCC3)ccc2OC)sc1C`, the EC50 [25] is reported as > 32 µM (inactive), the IC50 [26] is reported as > 32 µM (inactive) and the EC50 [27] is reported as > 32 µM (inactive). The IC50 [28] was > 32 µM (inactive), the EC50 [29] was 2.22 µM (active) and the EC50 [30] was > 32 µM (inactive). For the same molecule, the IC50 [31] was > 32 µM (inactive).

With `Cc1ccccc1C(=O)/N=c1\sccn1C` the IC50 [32] was > 50 µM (inactive).
